# Measurements reported in US5316929A, “Process for the preparation of MA” (Hoechst Aktiengesellschaft, priority 1991, dated 1994).
# “Also recorded” adds a separate entry of the source.
# Tested on: moenomycinase
# Experiment: Moenomycinase activity (cleavage of moenomycin A, TLC/UV analysis)
# Assay type: biochemical, Bacillus sp. DSM 4675
# Conditions: EDTA 10 mM in FIG. 1
# Description: Partially purified moenomycinase was dialyzed for 24 hours. The dialyzed moenomycinase was incubated with moenomycin A (6 mg/ml) in 100 mM potassium phosphate buffer, pH 8.0, for 31 hours with the addition of metal ions (0.5 or 1.0 mM, except K^+ =20 mM0 or EDTA (10 mM). Enzyme activity was measured by determining the amount of MC formed using TLC and UV analysis as described in Example 3. The TLC plates were scanned at a wavelength of 254 nm using a DESAGA Chromatogram Densitometer CD50. Enzyme activity is expressed relative to the activity of the dialyzed preparation ("Dial").
# FIG. 2. Activation of Moenomycinase by Cobalt. Purified moenomycinase was incubated with moenomycin A in the presence of the indicated concentrations of Co^++. Enzyme activity was measured by determining the amount of MB formed using TLC and UV analysis as described in FIG. 1.
# The molecular weight of moenomycinase is 230,000±10,000 Dalton. Moenomycinase has an optical pH of 8.0 to 8.5 and an optimal temperature of 45° to 55° C. Moenomycinase has a Km value of 4 to 10 mmolar based on moenomycin A as substrate.
row,SMILES,Inhibition of moenomycinase
1,C=O [formalin],inhibited
2,CC(=O)OCC1=C(C(=O)O)N2C(=O)[C@@H](NC(=O)CCC[C@@H](N)C(=O)O)[C@H]2SC1 [Cephalosporin C],inhibited
3,O=C(O)CN(CCN(CC(=O)O)CC(=O)O)CC(=O)O [EDTA],inhibited
4,"CC(=O)OCC1=C(C(=O)O)N2C(=O)[C@@H](N)[C@H]2SC1 [7-aminocephalosporin acid (7-ACA), 7-aminocephalosporin acid]",inhibited

# Same assay, conditions: metal ions 0.05-1.0 mM
row,SMILES,Activation of moenomycinase
1,[Ca+2] [Ca^++],activated
2,[Mg+2] [Mg^++],activated
3,[Ni+2] [Ni^++],activated; also recorded: greatest activation
4,[Co+2] [Co^++],activated

# Tested on: biosynthesis of the peptidoglycan framework of the bacterial cell wall
# Experiment: not given
# Conditions: cited from earlier work
row,SMILES,Inhibition of the biosynthesis of the peptidoglycan framework of the bacterial cell wall
1,C=C(C/C=C(\C)CCC=C(C)C)CCC(C)(C)/C=C/CC/C(C)=C/CO[C@@H](COP(=O)(O)O[C@H]1O[C@H](C(N)=O)[C@@](C)(O)[C@H](OC(N)=O)[C@H]1O[C@@H]1O[C@H](CO[C@@H]2O[C@H](CO)[C@@H](O)[C@H](O)[C@H]2O)[C@@H](O[C@@H]2O[C@H](C)[C@@H](O[C@@H]3O[C@H](C(=O)NC4=C(O)CCC4=O)[C@H](O)[C@H](O)[C@H]3O)[C@H](O)[C@H]2NC(C)=O)[C@H](O)[C@H]1NC(C)=O)C(=O)O [Moenomycin A],inhibits
